{"source": "patent EP4566614A1", "about": "“DRY EYE REMEDY CONTAINING DNA OLIGONUCLEOTIDE […] BINDING TO IFN-y” (TAGCyx Biotechnologies Inc., priority 2022, dated 2024)", "target": "T1, IFN-y (Homo sapiens, UniProt P01579)", "T1 sequence (P01579 24-166)": "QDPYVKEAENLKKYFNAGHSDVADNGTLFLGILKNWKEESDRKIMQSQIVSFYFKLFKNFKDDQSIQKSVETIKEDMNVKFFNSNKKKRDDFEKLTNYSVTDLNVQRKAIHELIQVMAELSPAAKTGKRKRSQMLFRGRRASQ", "assay": "Binding of PEG-modified form to IFN-y by SPR (Surface Plasmon Resonance)", "conditions": "PEG (40000) on base X", "text": "With the base of X produced in Example 2, Aptamer 3 (1 eq) having a primary amine side chain and commercially available NHS-PEG (40000) (1.5 eq) were mixed in a phosphate buffer at pH 7 to 8 and the mixture was stirred for 1 day at room temperature. The reaction solution was concentrated and the resulting modified form was purified by reversed phase HPLC to obtain a PEG-modified form of Aptamer 3."}
{"substance": "PEG-modified form of Aptamer 3: Aptamer 3 having a primary amine side chain at X reacted with NHS-PEG (40000) (CCCGCCCGGGTCCGCGAAGCGGTAGGTNTGGGCTAGGCNGCTGGCGGGCGCGNAGCG; DNA aptamer, amine side-chain residue X conjugated to 40 kDa PEG, further chemistry not given here)", "values": [{"measurement": "ability to bind to IFN-y", "value": "retained its ability to bind to IFN-y"}, {"measurement": "ability to bind to IFN-y", "setting": "listed as PEG-modified form of a DNA aptamer having the sequence of SEQ ID NO: 3", "value": "capable of binding to IFN-γ"}]}
